Measurements reported in patent US12428445B2, “Mini-nucleosome core proteins and use in nucleic acid delivery” (priority 2018, dated 2025).
Where no end group is shown, it is not given here. [ ]: non-standard residue; d: D form. LINKER = not defined here

Columns and labels:
[1] = test system: retina and RPE cells; test: Intraocular (intravitreal) delivery, native GFP fluorescence in retinal sections and RPE whole mounts; format: in vivo; settings: 1.5 micrograms, Balb/c mice
Method: In the present Example, Balb/c mice were anesthetized by IP injection with Ketamine/Xylazine (90-100 mg/kg+10 mg/kg) and positioned underneath a microscope. Mice eyes were dilated with topical Tropicamide (1%) and 1 ul of loaded mini-nucleosomes (total dose 1.5 micrograms in mice) were injected into the vitreous cavity using 32 gauze blunt needle passing through the incision made by a 25-gauze needle below the limbus. At various time points, mice were perfused with 10 ml of 1×PBS, and then sacrificed using standard techniques. Mice were enucleated and eyecups were collected and incubated in 4% paraformaldehyde overnight. The eyecups were washed with 1×PBS, then immersed in 15% sucrose for few hours and then in 30% sucrose solution overnight for cryopreservation. The eyecups were then placed in a plastic vial and frozen using OCT compound for cryo-sectioning. 10-micron thick tissue sections were obtained for staining. The retinal sections were mounted with mounting media with or without DAPI, coverslip and sealed. Images were acquired by Leica SP5. For whole mount imaging, eyecups were fixed in 4% paraformaldehyde overnight. Eyecups were washed in 1×PBS, retina was removed and the remaining eyecup or RPE wholemount was processed for staining. The RPE tissue was whole mounted with mounting media, coverslip and sealed. Images were acquired by Leica SP5.
To target the RPE cells, the present Example utilized a mini-nucleosome core protein (SEQ ID NO: 392) that could bind to the phagocytic proteins like MERTK. RPE are phagocytic cells, that extend their microvilli to the photoreceptor inner/outer segment junction. MERTK is expressed in those microvilli. In SEQ ID NO: 392, we incorporated the “eat me” signals as descried in Table 8. In literature, “eat me” signals are described as domains exposed in cellular debris that are primed for phagocytosis (Wei Li, Journal of Cell physiology, 2016, which is incorporated herein by reference). To the present inventor's knowledge, these “eat me” signals have never been utilized in the context of non-viral vectors before. […]

[2] = Transmission Electron Microscopy (TEM) of loaded mini-nucleosomes (shape); format: physicochemical; settings: Luciferase plasmid (SEQ ID NO: 396) condensed with core protein; final formulation in sterile, endotoxin free water
Source text: Provided in this Example are techniques to produce loaded mini-nucleosomes in various formulations, including formulations useful for administration to cells and to mammalian subjects, e.g., humans. Loaded mini-nucleosomes can be formulated to different shape and/or sizes parameters based on the mini-nucleosome core protein amino acid sequence and the buffer conditions in which the synthesis occurs. Loaded mini-nucleosomes can be formulated in different conditions, e.g., with solubility suitable for therapeutic use. Solubility of loaded mini-nucleosomes in water and/or normal saline is one means to allow non-toxic formulation of compositions for administration to patients, and to ease of delivery into patients. To form loaded mini-nucleosomes represented in FIG. 7, core proteins were synthesized by solid phase synthesis using trifluoroacetate buffers. 200 micrograms of DNA (SEQ ID NO: 396) were added to 1 milligram of lyophilized core proteins and vortexed together, and purified to produce loaded mini-nucleosomes (FIG. 7). Buffer exchange was performed and final formulation of mini-nucleosome was made in sterile, endotoxin free water. 1 microgram of each kind of mini-nucleosomes was diluted in water and then placed on grids that were stained with freshly prepared in 0.75% uranyl acetate in methanol solution for two minutes. […]

[3] = test system: muscle cells; test: Intramuscular delivery, GFP fluorescence and dystrophin immunolabeling in leg muscle sections; format: in vivo; settings: 17.5 ug per leg, Balb/c mice, 3-months post injection
Method: Balb/c mice were anesthetized by IP injection with Ketamine/Xylazine (90-100 mg/kg+10 mg/kg) and several loaded mini-nucleosomes were injected into both leg muscle at 17.5 ug doses per leg using an insulin syringe (Total dose 35 micrograms per mice). Mice were sacrificed at various time points and leg muscle were obtained for tissue sections. […] One skilled in the art may contemplate combining such domains with other domains known for muscle tropism.
To validate muscle specificity of expression of genes encoded by the nucleic acid cargo, we utilized dystrophin immunolabeling as an endogenous secondary marker. […] Native fluorescence of GFP was obtained in the 486-nm channel of Leica SP5 scope. Dystrophin in red is the RFP channel (555-nm). Untransduced muscle cells in figure also serve as internal control for differentiation between GFP signal and autofluorescence.

**Q.** With “SEQ ID NO. 388 (KKRHRKLREKRHRKLRRRRRLKRHRKKRHRKLREK; not fully specified)” as the substance, how does the “GFP expression / transduction in retina and RPE” value (from here on “GFP expression / transduction”) [1] read?
**A.** express GFP to target neuronal cells in the retina

**Q.** For “SEQ ID NO. 392 (KKKRKKTKKKAKKALKKKKKGKKKKRRRRKAAPKK; not fully specified)”, which “GFP expression / transduction” value [1] is on record?
**A.** enhanced uptake into the RPE

**Q.** Which “Shape of loaded mini-nucleosome (TEM)” value [2] does the source give for “CKKKKKKKKKKKKKKKKKKKKKKKKKKKKKK [SEQ ID NO: 393, reference compound]” here?
**A.** spiral/helical-shaped

**Q.** What about the “GFP fluorescence in muscle tissue sections at 3 months” value [3] of the same substance?
**A.** didn't exhibit GFP fluorescence

**Q.** For “SEQ ID NO:388 (KKRHRKLREKRHRKLRRRRRLKRHRKKRHRKLREK; not fully specified)”, which “GFP expression / transduction” value [1] is on record?
**A.** transduction into ganglion cells, bipolar cells and photoreceptors

**Q.** Which results are given for “KKKRHRKKKKK-[LINKER]-RGD-[LINKER]-KKKK-[LINKER]-NTQIH-[LINKER]-RRRRR-[LINKER]-TPH-[LINKER]-KK (KKKRHRKKKKK[LINKER]RGD[LINKER]KKKK[LINKER]NTQIH[LINKER]RRRRR[LINKER]TPH[LINKER]KK; reading uncertain; also: linker structure not given here) [SEQ ID NO: 391]”?
**A.** Shape of loaded mini-nucleosome (TEM) [2]: mixture of circular and rod like molecules; GFP fluorescence in muscle tissue sections at 3 months [3]: sharp green fluorescence in skeletal muscle cells

**Q.** With “KKKRHRKRKRKRKRRRRKKK-[LINKER]-ASSLNIAK-[LINKER]-RRRR (KKKRHRKRKRKRKRRRRKKK[LINKER]ASSLNIAK[LINKER]RRRR; reading uncertain; also: linker structure not given here) [SEQ ID NO: 389]” as the substance, how does the “GFP fluorescence in muscle tissue sections at 3 months” value [3] read?
**A.** didn't exhibit GFP fluorescence
